Experimental data taken from patent publication US20120065199A1, “SUBSTITUTED QUINOLINES FOR USE AS VEGF INHIBITORS” (CLANOTECH AB, priority 2009, published 2012).

Experiments:
PAE/VEGFR-2 cells = assay: Cell shape assay, PAE/VEGFR-2 cells with VEGF-A; format: cell-based, porcine
Protocol: (§1) One of the used assays comprised a culture of PAE/VEGFR-2 and PAE/VEGFR3 cells. Morphological changes of the cells were recorded microscopically after addition of VEGF-A and VEGF-C respectively, followed by the test compound at a final concentration up to 100 μM. Growth inhibitions of the PAE/VEGFR-2 cells were detected in the presence of the compound of Example 1 according to the invention at 10 μM or lower. Furthermore, the inventive compounds were tested in PAE/VEGFR-3 cells and morphological changes of the cells were recorded microscopically after addition of the VEGF-C, followed by the test compound at a final concentration up to 100 μM. Growth inhibitions of the PAE/VEGFR-3 cells were detected in the presence of several of Examples according to the invention. The compounds were tested at 10, 50 and 100 μM. The effect of the test compounds in Table 1 is expressed as concentration of compound that inhibits the cell morphology induced by VEGF A and VEGF C. No effect means that no morphological changes were seen up to 100 μM compound concentrations.
(§2) In Table 1, data from both the cell shape assay and the chemotaxis assay are shown. Thus, under “Cell Shape: PAE/VEGFR-2 with VEGF antagonist conc. (μM)” and “Cell Shape: PAE/VEGFR-3 with VEGF antagonist conc. (μM)” the concentration of the indicated inventive compound that gave restitution of cell morphology in the cell shape assay is shown. Data under “Chemotaxis: VEGFR-2% inhibition of cell migration” and “Chemotaxis: VEGFR-3% inhibition of cell migration” show the percentage inhibition of PAE cells expressing VEGFR-2 or 3 in the presence of 10 μM of the indicated inventive compound.

PAE/VEGFR-3 cells = assay: Cell shape assay, PAE/VEGFR-3 cells with VEGF-C; format: cell-based, porcine; conditions: VEGF-C induced cell morphology, tested at 10, 50 and 100 μM, No effect = no morphological changes up to 100 μM; for minimal effective concentration: Sus scrofa, read-out: Cell Shape: PAE/VEGFR-3 with VEGF antagonist conc. (μM) that gives inhibition
Protocol: as §1, §2

[1] = tested on: PAE cells expressing VEGFR2; assay: Chemotaxis assay (modified Boyden chamber), PAE/VEGFR-2 toward VEGF-A; format: cell-based, porcine; conditions: VEGF-A as chemo-attractant, absence of serum; for inhibition at 10 µM: Sus scrofa, PAE, 10 μM compound, read-out: Chemotaxis: VEGFR-2 inhibition of cell migration (%) at 10 μM compound concentration
Protocol: (§3) Additionally, the effect of the compounds was tested in this capacity of influencing chemotaxis. The test compounds were tested in porcine aorta endothelial (PAE) cells expressing VEGFR2 and VEGFR3 (PAE/VEGFR-2 and PAE/VEGFR-3). The method used is a modified Boyden chamber assay. The migration of the PAE cells expressing VEGFR2 and VEGFR3 receptors toward VEGF-A and VEGF-C respectively used as chemo-attractant was studied through micropore polycarbonate filter and was scored in the absence of serum. The assay was performed in the presence of compounds at 10 μM.
as §2

[2] = tested on: PAE cells expressing VEGFR3; assay: Chemotaxis assay (modified Boyden chamber), PAE/VEGFR-3 toward VEGF-C; format: cell-based, porcine; conditions: Sus scrofa, 10 μM compound, VEGF-C as chemo-attractant, absence of serum, read-out: Chemotaxis: VEGFR-3 inhibition of cell migration (%) at 10 μM compound concentration
Protocol: as §3, §2

[3] = tested on: T241 wt mouse fibrosarcoma tumor cells; assay: Tumor synograft model; format: in vivo, C57B1 mice; conditions: oral administration 25 mg/kg/day for 10 days, subcutaneous T241 tumors in mice, compared with vehicle
Protocol: FIG. 1 is a plot of the tumor volume (mL) in mice having received subcutaneously implanted T241 wt mouse fibrosarcoma tumor cells, as a function of days of therapy by oral administration at 25 mg/kg/day of the compound of Example 1 of the invention. This is compared to administration of vehicle only.
Female 6-week-old C57B1 mice were used for tumor studies. […] T241 wt mouse fibrosarcoma tumor cells growing in logarithmic phase were harvested and resuspended in media, and a single cell solution in a volume of 100 μL was implanted subcutaneously at the right flank of each animal. 6 Mice were used in the treated groups and 6 mice were used in the control groups. Systemic treatment by oral administration injections with either 50 μl of vehicle or the inventive compound (the compound of Example 1) (25 mg/kg/day) was begun at day at day 0 (zero). The inventive compound was administrated for 10 days. Visible tumors were present day 5-10 after implantation. Primary tumors were measured with digital calipers on the days indicated. Tumor volumes were calculated according to the formula: Length×width^2×0.52 as reported. […] It takes a significant number of days for the treated animals to reach the same tumor volume as the vehicle treated animals.

[4] = VEGF-A induced cell morphology, tested at 10, 50 and 100 μM, No effect = no morphological changes up to 100 μM

Structure (SMILES): CNC(=O)c1ccc2ncc(C(=O)OCn3ccnc3)c(Nc3ccc(F)cc3)c2c1 [Example 14, 4-(4-Fluoro-phenylamino)-6-methylcarbamoyl-quinoline-3-carboxylic acid imidazol-1-yl-methylester]
- Cell Shape: PAE/VEGFR-2 with VEGF antagonist conc. (μM) that gives inhibition (PAE/VEGFR-2 cells; [4]): No effect
- minimal effective concentration (PAE/VEGFR-3 cells): 50 µM
- Chemotaxis: VEGFR-2 inhibition of cell migration (%) at 10 μM compound concentration [1]: No effect
- inhibition at 10 µM [2]: 30%

Structure (SMILES): CNC(=O)c1ccc2ncc(C(=O)OCc3oc(=O)oc3C)c(Nc3ccc(OC)cc3)c2c1 [Example 12, (5-Methyl-2-oxo-1,3-dioxol-4-yl)methyl 4-[(4-methoxyphenyl)amino]-6-(methylcarbamoyl)quinoline-3-carboxylate]
- Cell Shape: PAE/VEGFR-2 with VEGF antagonist conc. (μM) that gives inhibition (PAE/VEGFR-2 cells; [4]): No effect
- minimal effective concentration (PAE/VEGFR-3 cells): 100 µM
- Chemotaxis: VEGFR-2 inhibition of cell migration (%) at 10 μM compound concentration [1]: No effect
- inhibition at 10 µM [2]: 46%

Structure (SMILES): CNC(=O)c1ccc2ncc(C(=O)OC(C)C(=O)O)c(Nc3ccc(OC)cc3)c2c1 (stereo not shown) [Example 9, 2-[4-[(4-Methoxyphenyl)amino]-6-(methylcarbamoyl)quinoline-3-carbonyl]oxypropanoic Acid]
- Cell Shape: PAE/VEGFR-2 with VEGF antagonist conc. (μM) that gives inhibition (PAE/VEGFR-2 cells; [4]): No effect
- Cell Shape: PAE/VEGFR-3 with VEGF antagonist conc. (μM) that gives inhibition (PAE/VEGFR-3 cells): No effect
- inhibition at 10 µM [1]: 38%
- inhibition at 10 µM [2]: 52%

Structure (SMILES): CNC(=O)c1ccc2ncc(C(=O)OCCN3CCOCC3)c(Nc3ccc(OC)cc3)c2c1 [Example 11, 2-Morpholinoethyl 4-[(4-methoxyphenyl)amino]-6-(methylcarbamoyl)-quinoline-3-carboxylate]
- Cell Shape: PAE/VEGFR-2 with VEGF antagonist conc. (μM) that gives inhibition (PAE/VEGFR-2 cells; [4]): No effect
- minimal effective concentration (PAE/VEGFR-3 cells): 10 µM
- inhibition at 10 µM [1]: 10%
- inhibition at 10 µM [2]: 83%

Structure (SMILES): CNC(=O)c1ccc2ncc(C(=O)OC(C)C(=O)OC)c(Nc3ccc(OC)cc3)c2c1 (stereo not shown) [Example 6, (2-Methoxy-1-methyl-2-oxo-ethyl) 4-[(4-methoxyphenyl)amino]-6-(methylcarbamoyl)quinoline-3-carboxylate]
- Cell Shape: PAE/VEGFR-2 with VEGF antagonist conc. (μM) that gives inhibition (PAE/VEGFR-2 cells; [4]): No effect
- minimal effective concentration (PAE/VEGFR-3 cells): 50 µM
- inhibition at 10 µM [1]: 23%
- inhibition at 10 µM [2]: 69%

Structure (SMILES): CNC(=O)c1ccc2ncc(C(=O)OCn3ccnc3)c(Nc3ccc(OC)cc3)c2c1 [Example 1, (1H-imidazol-1-yl)methyl 4-(4-methoxyphenylamino)-6-(methylcarbamoyl)-quinoline-3-carboxylate]
- minimal effective concentration (PAE/VEGFR-2 cells; Sus scrofa, VEGF-A induced cell morphology, tested at 10, 50 and 100 μM, No effect = no morphological changes up to 100 μM, read-out: Cell Shape: PAE/VEGFR-2 with VEGF antagonist conc. (μM) that gives inhibition): 10 µM
- Concentration at which growth inhibitions of the PAE/VEGFR-2 cells were detected (PAE/VEGFR-2 cells; after addition of VEGF-A, final concentration up to 100 μM): ≤ 10 µM
- inhibition at 10 µM [1]: 52%
- inhibition at 10 µM [2]: 53%
- Tumor volume, effectiveness in the animal model (FIG. 1) [3]: convincing results for its effectiveness

Structure (SMILES): CNC(=O)c1ccc2ncc(C(=O)OCN(c3ccccc3)S(C)(=O)=O)c(Nc3ccc(OC)cc3)c2c1 [Example 8, (Methylsulfonyl(phenyl)amino)methyl 4-[(4-methoxyphenyl)amino]-6-(methylcarbamoyl)quinoline-3-carboxylate]
- Cell Shape: PAE/VEGFR-2 with VEGF antagonist conc. (μM) that gives inhibition (PAE/VEGFR-2 cells; [4]): No effect
- minimal effective concentration (PAE/VEGFR-3 cells): 100 µM
- Chemotaxis: VEGFR-2 inhibition of cell migration (%) at 10 μM compound concentration [1]: No effect
- inhibition at 10 µM [2]: 18%

Structure (SMILES): CNC(=O)c1ccc2ncc(C(=O)OCCN3CCOCC3)c(Nc3ccc(F)cc3)c2c1 [Example 15, 2-Morpholinoethyl 4-[(4-fluorophenyl)amino]-6-(methylcarbamoyl)quinoline-3-carboxylate]
- Cell Shape: PAE/VEGFR-2 with VEGF antagonist conc. (μM) that gives inhibition (PAE/VEGFR-2 cells; [4]): No effect
- minimal effective concentration (PAE/VEGFR-3 cells): 100 µM
- inhibition at 10 µM [1]: 31%
- inhibition at 10 µM [2]: 59%

Structure (SMILES): CNC(=O)c1ccc2ncc(C(=O)OCC(=O)N(C)C)c(Nc3ccc(OC)cc3)c2c1 [Example 5, 2-(dimethylamino)-2-oxoethyl-4-(4-methoxyphenylamino)-6-(methyl-carbamoyl)quinoline-3-carboxylate]
- Cell Shape: PAE/VEGFR-2 with VEGF antagonist conc. (μM) that gives inhibition (PAE/VEGFR-2 cells; [4]): No effect
- minimal effective concentration (PAE/VEGFR-3 cells): 100 µM
- inhibition at 10 µM [1]: 2%
- inhibition at 10 µM [2]: 64%

Structure (SMILES): CNC(=O)c1ccc2ncc(C(=O)OCOC(C)=O)c(Nc3ccc(OC)cc3)c2c1 [Example 7, Acetoxymethyl 4-[(4-methoxyphenyl)amino]-6-(methylcarbamoyl)quinoline-3-carboxylate]
- Cell Shape: PAE/VEGFR-2 with VEGF antagonist conc. (μM) that gives inhibition (PAE/VEGFR-2 cells; [4]): No effect
- minimal effective concentration (PAE/VEGFR-3 cells): 50 µM
- Chemotaxis: VEGFR-2 inhibition of cell migration (%) at 10 μM compound concentration [1]: No effect
- inhibition at 10 µM [2]: 25%

Structure (SMILES): CNC(=O)c1ccc2ncc(C(=O)OCCN(C)C)c(Nc3ccc(OC)cc3)c2c1 [Example 4, 2-(dimethylamino)ethyl 4-(4-methoxyphenylamino)-6-(methylcarbamoyl)-quinoline-3-carboxylate]
- Cell Shape: PAE/VEGFR-2 with VEGF antagonist conc. (μM) that gives inhibition (PAE/VEGFR-2 cells; [4]): No effect
- minimal effective concentration (PAE/VEGFR-3 cells): 100 µM
- inhibition at 10 µM [1]: 21%
- inhibition at 10 µM [2]: 63%

Structure (SMILES): CNC(=O)c1ccc2ncc(C(=O)OCCn3ccnc3)c(Nc3ccc(F)cc3)c2c1 [Example 13, 4-(4-Fluoro-phenylamino)-6-methylcarbamoyl-quinoline-3-carboxylic acid 2-imidazol-1-yl-ethylester]
- Cell Shape: PAE/VEGFR-2 with VEGF antagonist conc. (μM) that gives inhibition (PAE/VEGFR-2 cells; [4]): No effect
- minimal effective concentration (PAE/VEGFR-3 cells): 50 µM
- Chemotaxis: VEGFR-2 inhibition of cell migration (%) at 10 μM compound concentration [1]: No effect
- inhibition at 10 µM [2]: 27%

Structure (SMILES): CNC(=O)c1ccc2ncc(C(=O)OCN(C)C(=O)c3ccccc3)c(Nc3ccc(OC)cc3)c2c1 [Example 3, (N-methylbenzamido)methyl 4-(4-methoxyphenylamino)-6-(methylcarbamoyl)-quinoline-3-carboxylate]
- Cell Shape: PAE/VEGFR-2 with VEGF antagonist conc. (μM) that gives inhibition (PAE/VEGFR-2 cells; [4]): No effect
- Cell Shape: PAE/VEGFR-3 with VEGF antagonist conc. (μM) that gives inhibition (PAE/VEGFR-3 cells): No effect
- inhibition at 10 µM [1]: 28%
- inhibition at 10 µM [2]: 36%

Structure (SMILES): CNC(=O)c1ccc2ncc(C(=O)OCCn3ccnc3)c(Nc3ccc(OC)cc3)c2c1 [Example 10, 2-Imidazol-1-ylethyl 4-[(4-methoxyphenyl)amino]-6-(methylcarbamoyl)-quinoline-3-carboxylate]
- Cell Shape: PAE/VEGFR-2 with VEGF antagonist conc. (μM) that gives inhibition (PAE/VEGFR-2 cells; [4]): No effect
- minimal effective concentration (PAE/VEGFR-3 cells): 10 µM
- inhibition at 10 µM [1]: 32%
- inhibition at 10 µM [2]: 53%

Structure (SMILES): CNC(=O)c1ccc2ncc(C(=O)OCN(C)C(=O)OC)c(Nc3ccc(OC)cc3)c2c1 [Example 2, (Methoxycarbonyl(methyl)amino)methyl 4-(4-methoxyphenylamino)-6-(methylcarbamoyl)quinoline-3-carboxylate]
- Cell Shape: PAE/VEGFR-2 with VEGF antagonist conc. (μM) that gives inhibition (PAE/VEGFR-2 cells; [4]): No effect
- Cell Shape: PAE/VEGFR-3 with VEGF antagonist conc. (μM) that gives inhibition (PAE/VEGFR-3 cells): No effect
- inhibition at 10 µM [1]: 39%
- inhibition at 10 µM [2]: 45%
